Molecular target: T1, androgen receptor (AR) splicing variant AR-v7 (Homo sapiens, UniProt P10275)
T1 construct: The degradation activity of compounds on AR-v7 in 22RV1 cells; host or cells: 22RV1 cells
T1 sequence (P10275 1-644 isoform P10275-3): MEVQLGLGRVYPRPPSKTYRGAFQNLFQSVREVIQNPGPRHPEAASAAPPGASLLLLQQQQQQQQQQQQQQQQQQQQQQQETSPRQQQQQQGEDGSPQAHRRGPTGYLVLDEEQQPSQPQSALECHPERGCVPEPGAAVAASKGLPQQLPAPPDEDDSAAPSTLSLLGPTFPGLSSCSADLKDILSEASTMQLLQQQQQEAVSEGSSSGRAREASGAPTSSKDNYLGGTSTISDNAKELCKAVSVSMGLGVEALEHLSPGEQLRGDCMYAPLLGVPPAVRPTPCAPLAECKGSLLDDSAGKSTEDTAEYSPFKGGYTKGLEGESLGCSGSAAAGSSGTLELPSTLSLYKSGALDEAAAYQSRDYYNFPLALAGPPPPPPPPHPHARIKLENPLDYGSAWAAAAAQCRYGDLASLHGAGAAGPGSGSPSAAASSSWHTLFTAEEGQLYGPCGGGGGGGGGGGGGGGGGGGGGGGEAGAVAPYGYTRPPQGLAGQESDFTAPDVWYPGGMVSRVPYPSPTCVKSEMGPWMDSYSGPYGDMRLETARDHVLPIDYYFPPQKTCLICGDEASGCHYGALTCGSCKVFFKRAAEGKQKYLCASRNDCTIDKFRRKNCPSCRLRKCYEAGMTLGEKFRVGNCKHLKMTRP
Experiment: Degradation activity on androgen receptor splicing variant AR-v7 in 22RV1 cells (ELISA)
Type: cell-based
Conditions: AR-v7 degradation in 22RV1 cells, 48 h, class symbols

`CN[C@@H]1CCCN(c2nccc(COc3ccc(C(C)(C)c4ccc(O[C@H]5C[C@@H](Nc6ccc7c(c6)C(=O)N(C6CCC(=O)NC6=O)C7=O)C5)cc4)cc3)n2)C1` (stereo partly shown) [Example 401] and `CN(C)[C@H]1CCN(c2nccc(COc3ccc(C(C)(C)c4ccc(O[C@H]5C[C@@H](Nc6ccc7c(c6)C(=O)N(C6CCC(=O)NC6=O)C7=O)C5)cc4)cc3)n2)C1` (stereo partly shown) [Example 238] fall in the same range of DC50: 0.011 to 0.1 µM for the first, 0.011 to 0.1 µM for the second.

`CC(C)(c1ccc(Oc2cnc(N)nn2)cc1)c1ccc(O[C@H]2C[C@H](Nc3ccc4c(c3)C(=O)N(C3CCC(=O)NC3=O)C4=O)C2)cc1` (stereo partly shown) [Example 215] and `Cc1cncc(Oc2ccc(C(C)(C)c3ccc(O[C@H]4C[C@@H](Nc5ccc6c(c5)C(=O)N(C5CCC(=O)NC5=O)C6=O)C4)cc3)cc2)n1` (stereo partly shown) [Example 537] fall in the same range of DC50: 0.011 to 0.1 µM for the first, 0.011 to 0.1 µM for the second.

First: CN1C(=O)CCC(N2C(=O)c3ccc(N[C@H]4C[C@H](Oc5ccc(C(C)(C)c6ccc(OCc7ccnc(N8CC9(COC9)C8)n7)cc6)cc5)C4)cc3C2=O)C1=O (stereo partly shown) [Example 100, 5-((1r,3r)-3-(4-(2-(4-(4-((2-(2-oxa-6-azaspiro[3.3]heptane-6-yl)pyrimidin-4-yl)methoxy)phenyl)propan-2-yl)phenoxy)cyclobutyl)amino)-2-(1-methyl-2,6-dioxopiperidin-3-yl)isoindolin-1,3-dione]
Second: CC(C)(c1ccc(OCc2ccnc(N3CC4(COC4)C3)n2)cc1)c1ccc(OCC2CC(Nc3ccc4c(c3)C(=O)N(C3CCC(=O)NC3=O)C4=O)C2)cc1 (stereo not shown) [Example 112, 5-((3-((4-(2-(4-((2-(2-oxa-6-azaspiro[3.3]heptan-6-yl)pyrimidin-4-yl)methoxy)phenyl)propan-2-yl)phenoxy)methyl)cyclobutyl)amino)-2-(2,6-dioxopiperidin-3-yl)isoindolin-1,3-dione]
The DC50 of the first is higher: 0.101 to 1 µM for the first, 0.011 to 0.1 µM for the second.

`CCC(CC)(c1ccc(OCCCCCCCCOCCCCNc2ccc3c(c2)C(=O)N(C2CCC(=O)NC2=O)C3=O)cc1)c1ccc(OCc2ccnc(NS(C)(=O)=O)n2)cc1` (stereo not shown) [Example 57, N-(4-((4-(3-(4-((8-(4-((2-(2,6-dioxopiperidin-3-yl)-1,3-dioxoisoindolin-5-yl)amino)butoxy)octyl)oxy)phenyl)pentan-3-yl)phenoxy)methyl)pyrimidin-2-yl)methanesulfonamide] and `CC(C)(c1ccc(OCCCCOCCCCNc2ccc3c(c2)C(=O)N(C2CCC(=O)NC2=O)C3=O)cc1)c1ccc(OCc2ccnc(NS(C)(=O)=O)n2)cc1` (stereo not shown) [Example 54, N-(4-((4-(2-(4-(4-(4-((2-(2,6-dioxopiperidin-3-yl)-1,3-dioxoisoindolin-5-yl)amino)butoxy)butoxy)phenyl)isopropan-2-yl)phenoxy)methyl)pyrimidin-2-yl)methanesulfonamide] fall in the same range of DC50: 0.101 to 1 µM for the first, 0.101 to 1 µM for the second.

First: CC(C)(c1ccc(OCc2ccnc(N3CC4(COC4)C3)n2)cc1)c1ccc(OC2CCCCC2Nc2ccc3c(c2)C(=O)N(C2CCC(=O)NC2=O)C3=O)cc1 (stereo not shown) [Example 569, 5-((2-(4-(2-(4-((2-(2-oxa-6-azaspiro[3.3]heptan-6-yl)pyrimidin-4-yl)methoxy)phenyl)propan-2-yl)phenoxy)cyclohexyl)amino)-2-(2,6-dioxopiperidin-3-yl)isoindolin-1,3-dione]
Second: CC(C)(c1ccc(OCc2ccnc(N3CC4(COC4)C3)n2)cc1)c1ccc(C(=O)N2CC(Nc3ccc4c(c3)C(=O)N(C3CCC(=O)NC3=O)C4=O)C2)cc1 (stereo not shown) [Example 503]
The DC50 of the first is higher: 1 to 5 µM for the first, 0.011 to 0.1 µM for the second.

First: CC(C)(c1ccc(OCCCNc2cccc3c2C(=O)N(C2CCC(=O)NC2=O)C3=O)cc1)c1ccc(OCc2nc3ncccc3o2)cc1 (stereo not shown) [Example 443, 2-(2,6-dioxopiperidin-3-yl)-4-((3-(4-(2-(4-(oxazolo[4,5-b]pyridin-2-ylmethoxy)phenyl)propan-2-yl)phenoxy)propyl)amino)isoindolin-1,3-dione]
Second: CC(=O)c1nccc(COc2ccc(C(C)(C)c3ccc(OCCCCCCCCCNc4cccc5c4C(=O)N(C4CCC(=O)NC4=O)C5=O)cc3)cc2)n1 (stereo not shown) [Example 386, 4-((9-(4-(2-(4-((2-acetylpyrimidin-4-yl)methoxy)phenyl)propan-2-yl)phenoxy)nonyl)amino)-2-(2,6-dioxopyridin-3-yl)isoindol-1,3-dione]
The DC50 of the first is lower: 0.011 to 0.1 µM for the first, 1 to 5 µM for the second.

`CC(C)(c1ccc(Oc2ncc(-n3nccn3)cn2)cc1)c1ccc(O[C@H]2C[C@@H](Nc3ccc4c(c3)C(=O)N(C3CCC(=O)NC3=O)C4=O)C2)cc1` (stereo partly shown) [Example 329] and `CC(C)(c1ccc(Oc2ccc(-n3ccnn3)nc2)cc1)c1ccc(O[C@H]2C[C@@H](Nc3ccc4c(c3)C(=O)N(C3CCC(=O)NC3=O)C4=O)C2)cc1` (stereo partly shown) [Example 541, 5-((1s,3s)-3-(4-(2-(4-((6-(1H-1,2,3-triazol-1-yl)pyridin-3-yl)oxy)phenyl)propan-2-ylphenoxy)cyclobutyl)amino)-2-(2,6-dioxopiperidin-3-yl)isoindolin-1,3-dione] fall in the same range of DC50: 0.011 to 0.1 µM for the first, 0.011 to 0.1 µM for the second.

First: CS(=O)(=O)Nc1cc(COc2ccc(C3(c4ccc(OCCCCCCCCOCCCCNc5ccc6c(c5)C(=O)N(C5CCC(=O)NC5=O)C6=O)cc4)CCC3)cc2)ccn1 (stereo not shown) [Example 58]
Second: CCC(CC)(c1ccc(OCCCNc2ccc3c(c2)C(=O)N(C2CCC(=O)NC2=O)C3=O)cc1)c1ccc(OCc2ccnc(C(C)=O)n2)cc1 (stereo not shown) [Example 439, 5-((3-(4-(3-(4-((2-acetylpyrimidin-4-yl)methoxy)phenyl)pentan-3-yl)phenoxy)propyl)amino)-2-(2,6-dioxopiperidine-3-amino)isoindolin-1,3-dione]
The DC50 of the first is higher: 1 to 5 µM for the first, 0.011 to 0.1 µM for the second.

`Cc1nc(-c2cncc(Oc3ccc(C(C)(C)c4ccc(O[C@H]5C[C@H](Nc6ccc7c(c6)C(=O)N(C6CCC(=O)NC6=O)C7=O)C5)cc4)cc3)n2)no1` (stereo partly shown) [Example 585] and `Cc1nnc(-c2coc(Oc3ccc(C(C)(C)c4ccc(O[C@H]5C[C@H](Nc6ccc7c(c6)C(=O)N(C6CCC(=O)NC6=O)C7=O)C5)cc4)cc3)n2)o1` (stereo partly shown) [Example 514] fall in the same range of DC50: 0.011 to 0.1 µM for the first, 0.011 to 0.1 µM for the second.

`CC(C)(c1ccc(Oc2cnc(N3CC4(COC4)C3)cn2)cc1)c1ccc(O[C@H]2C[C@H](Nc3ccc4c(c3)C(=O)N(C3CCC(=O)NC3=O)C4=O)C2)cc1` (stereo partly shown) [Example 573] and `CC1(C)CN(c2nccc(COc3ccc(C(C)(C)c4ccc(O[C@H]5C[C@@H](Nc6ccc7c(c6)C(=O)N(C6CCC(=O)NC6=O)C7=O)C5)cc4)cc3)n2)CCN1` (stereo partly shown) [Example 458, 5-(((1s,3s)-3-(4-(2-(4-((2-(3,3-dimethylpiperazin-1-yl)pyrimidin-4-yl)methoxy)phenyl)propan-2-yl)phenoxy)cyclobutyl)amino)-2-(2,6-dioxopiperidin-3-yl)isoindolin-1,3-dione] fall in the same range of DC50: 0.011 to 0.1 µM for the first, 0.011 to 0.1 µM for the second.

With `CC(=O)c1nccc(COc2ccc(C(C)(C)c3ccc(OC4CC5(CCN(c6ccc7c(c6)C(=O)N(C6CCC(=O)NC6=O)C7=O)CC5)C4)cc3)cc2)n1` (stereo not shown) [Example 489] the DC50 was 1 to 5 µM.

Same assay, conditions: AR-v7 degradation in 22RV1 cells, 48 h, numeric values

`CC(C)(c1ccc(OCCCN2CCN(CC3CCN(CCCNc4ccc5c(c4)C(=O)N(C4CCC(=O)NC4=O)C5=O)CC3)CC2)cc1)c1ccc(OCc2ccnc(NS(C)(=O)=O)n2)cc1` (stereo not shown) [Example 29, N-(4-((4-(2-(4-(3-(4-((1-(3-((2-(2,6-dioxopiperidin-3-yl)-1,3-dioxoisoindolin-5-yl)amino)propyl)piperidin-4-yl)methyl)piperazin-1-yl)propoxy)phenyl)propan-2-yl)phenoxy)methyl)pyrimidin-2-yl)methanesulfonamide] and `CC(C)(c1ccc(OCCCCCCN2CCC(CN3CCN(c4ccc5c(c4)C(=O)N(C4CCC(=O)NC4=O)C5=O)CC3)CC2)cc1)c1ccc(OCc2ccnc(NS(C)(=O)=O)n2)cc1` (stereo not shown) [Example 6] are the same in DC50: 6.33 µM for the first, 6.33 µM for the second.

`CC(C)(c1ccc(OCc2ccnc(NS(C)(=O)=O)n2)cc1)c1ccc(OC2CCN(c3cccc4c3C(=O)N(C3CCC(=O)NC3=O)C4=O)CC2)cc1` (stereo not shown) [Example 35, N-(4-((4-(2-(4-((1-(2-(2,6-dioxopiperidin-3-yl)-1,3-dioxoisoindolin-4-yl)piperidin-4-yl)oxy)phenyl)propan-2-yl)phenoxy)methyl)pyrimidin-2-yl)methanesulfonamide] and `CC(=O)c1nccc(COc2ccc(C(C)(C)c3ccc(OCC4CCCN(c5cccc6c5C(=O)N(C5CCC(=O)NC5=O)C6=O)C4)cc3)cc2)n1` (stereo not shown) [Example 303, 4-(3-((4-(2-(4-((2-acetylpyrimidin-4-yl)methoxy)phenyl)propan-2-yl)phenoxy)methyl)piperidin-1-yl)-2-(2,6-dioxopiperidin-3-yl)isoindolin-1,3-dione] cannot be ordered by DC50: > 10 µM for the first, > 10 µM for the second.

`CC(C)(c1ccc(OCc2ccnc(NS(C)(=O)=O)n2)cc1)c1ccc(OCC2CCN(CCCOCCCNc3ccc4c(c3)C(=O)N(C3CCC(=O)NC3=O)C4=O)CC2)cc1` (stereo not shown) [Example 40] and `CC(C)(c1ccc(OCCCCOCCCCN2CCC3(CC2)CN(c2ccc4c(c2)C(=O)N(C2CCC(=O)NC2=O)C4=O)C3)cc1)c1ccc(OCc2ccnc(NS(C)(=O)=O)n2)cc1` (stereo not shown) [Example 3] cannot be ordered by DC50: > 10 µM for the first, > 10 µM for the second.

In the case of `CC(=O)c1nccc(COc2ccc(C(C)(C)c3ccc(OCCCCCCCCOCCN4CCN(c5ccc6c(c5)C(=O)N(C5CCC(=O)NC5=O)C6=O)CC4)cc3)cc2)n1` (stereo not shown) [Example 299, 5-(4-(2-((8-(4-(2-(4-((2-acetylpyrimidin-4-yl)methoxy)phenyl)propan-2-yl)phenoxy)octyl)oxy)ethyl)piperazin-1-yl)-2-(2,6-dioxopiperidin-3-yl)isoindolin-1,3-dione], the DC50 is reported as > 10 µM.

— patent publication US20250051347A1, “BIFUNCTIONAL CHIMERIC HETEROCYCLIC COMPOUND AND USE THEREOF AS ANDROGEN RECEPTOR DEGRADER” (Hinova Pharmaceuticals, Inc., priority 2021, published 2025)
